# Test system: ent-kaurene synthase B (KSB)
# Experiment: Properties of KSB with the phenyl-purified enzyme preparation (pH, Km, cations)
# Assay type: biochemical, Cucurbita maxima L.
# Settings: for effect of divalent cation on KSB activity: 0.1-50 mM as chlorides, instead of 5 mM Mg2+; for effect of divalent cation on KSB activity / optimal concentration of cation for KSB activity: FIG. 4; for optimal concentration of cation for KSB activity: cation as chloride instead of 5 mM Mg2+
# Protocol: The mixture was incubated at 30° C. for 30 min, and the enzyme reaction was terminated by the addition of acetone (200 μL) and water (100 μL). The mixture was extracted with n-hexane (400 μL), and 300 μL alibuots of the extract were concentrated in vacuo and applied to a silica gel plate. After developing with n-hexane, the radioactivity of the silica gel of the ent-kaurene region (Rf 0.6-1.0) was determined. One unit of kaurene synthase activity was defined as the production of 1 pmol of ent-kaurene per minute.
# The amount of [1-^3 H]CPP was 2.2 kBq and the incubation period was 15 min. The other conditions were the same as those for the enzyme assay. To determine the optimal pH, KPi buffer (50 mM) adjusted to a particular pH (pH 4.5 to 9.0) was used. […] The production of ent-kaurene was calculated and the Km value was determined from a Lineweaver-Burk plot.
Structure (SMILES),effect of divalent cation on KSB activity,optimal concentration of cation for KSB activity,effect on KSB activity in combination with 5 mM Mg2+ (added together with 5 mM Mg2+),also measured
[Cl-].[Cl-].[Co+2] [Co^2+],promoted KSB activity,around 10 mM,–,–
[Cl-].[Cl-].[Mg+2] [Mg^2+],promoted KSB activity,around 10 mM,–,–
[Cl][Ni][Cl] [Ni^2+],weakly promoted KSB activity,–,–,–
"C=C1CC[C@@H]2C(C)(C)CCC[C@@]2(C)[C@@H]1CC/C(C)=C/COP(=O)(O)OP(=O)(O)O [[15-^3 H]CPP, copalyl pyrophosphate]",–,–,–,"Km (phenyl-purified enzyme preparation, CPP 7 to 480 nM, Lineweaver-Burk plot): 350 nM"
[Ba+2].[Cl-].[Cl-] [Ba^2+],showed no effects,–,inhibited KSB activity promoted by Mg^2+,–
[Cl][Fe][Cl] [Fe^2+],weakly promoted KSB activity,–,–,–
O=C(O)CN(CCN(CC(=O)O)CC(=O)O)CC(=O)O [EDTA],–,–,–,effect of EDTA on KSB activity (EDTA 1-100 mM): did not change KSB activity
[Cl][Mn][Cl] [Mn^2+],promoted KSB activity,around 10 mM,–,–
[Cl][Cu][Cl] [Cu^2+],showed no effects,–,inhibited KSB activity promoted by Mg^2+,concentration completely inhibiting the conversion promoted by 5 mM Mg2+ (added together with 5 mM Mg2+): above 0.5 mM
[Ca+2].[Cl-].[Cl-] [Ca^2+],showed no effects,–,inhibited KSB activity promoted by Mg^2+,–

# Source: patent US6020176A, “Kaurene synthase” (The Institute of Physical and Chemical Research, priority 1995, dated 2000)
